Data published in BindingDB's records for doi:10.1021/jm000484+ (Abbott Laboratories, 2001).

Key:
[1] = In vitro immunosuppression in stimulated T cells expressing Voltage-gated potassium channel subunit Kv1.3; Range is 1-10
[2] = In vitro immunosuppression in stimulated T cells expressing Voltage-gated potassium channel subunit Kv1.3

SMILES | IC50 [1] [nM] | EC50 [2] [nM]
CCNC(=O)c1cc(/C=C/CCc2ccccc2)ccc1-c1ccc(Cl)cc1 [4'-Chloro-4-((E)-4-phenyl-but-1-enyl)-biphenyl-2-carboxylic acid ethylamide] | 1000 | 
CCC/N=c1\ccn(Cc2ccccc2)c2cc(Cl)ccc12 |  | 1000
